Results: patent publication US20250243160A1, “INDOLE DERIVATIVES FOR TARGETING AUTOPHAGY” (Automera PTE. LTD, priority 2024, published 2025)

Assays:
Recombinant p62 protein = Recombinant p62 protein (Homo sapiens, UniProt Q13501); assay: Surface plasmon resonance (SPR) compound binding to p62; settings: 15° C
Experimental: Recombinant p62 protein was buffer exchanged into Biacore SPR running buffer (Cytiva 100671) using the Slide-A-Lyzer Mini Dialysis system 7K MWCO (Thermo Fisher Scientific, Cat no. 69560). The final protein concentration was determined using the Nanodrop One spectrophotometer (Thermo Fisher Scientific, cat no. ND-ONE-W), with calibration for the dialysis buffer.
The prepared protein was diluted in sodium acetate buffer (NaAc, pH 5.5, Cytiva) to concentrations ranging from approximately 0.25-40 μg/mL. Post-immobilization, the protein required approximately 16 hours of equilibration in running buffer supplemented with 1% DMSO at 15° C. to ensure adequate surface equilibration and protein reorganization.
All SPR experiments were conducted at a constant temperature of 15° C. The SPR chip surface was activated using EDC/NHS for a contact time of 6-10 min at a flow rate of 10 μL/min. This was followed by protein immobilization for 2100 seconds and ethanolamine capping for 420 seconds, both at the same flow rate. Immediately after immobilization, the NH2-REEE peptide was analyzed in Single Cycle Kinetics mode (SCK) to verify surface activity, ensuring it binds the sample with the published affinity (˜20 μM by SPR).
For general compound binding studies, experiments were performed at 15° C. using a running buffer composed of 10 mM HEPES, 150 mM NaCl, 1 mM DTT, 0.05% Tween 20, and 1% DMSO at pH 7.4. The test compound was initially prepared at a 20 mM concentration in DMSO and subsequently titrated in 2-fold dilutions. For each assay, 2 μL of the compound was mixed with 198 μL of the running buffer, and the mixture was thoroughly pipetted approximately 15 times for homogenization.
A series of blank injections (0 μM concentration) were included for double referencing, with at least 8 or 16 per plate depending on the format. Typical injection parameters were 120 seconds for association and 180 seconds for dissociation at a flow rate of […]. A four-point solvent correction was prepared with DMSO concentrations ranging from 2% to 0.5% in the buffer. Post each compound injection, the system's needles were washed with 50% DMSO.
Analysis of the SPR data was conducted using the Cytiva Evaluation software. The binding levels at the late time-point of each interaction were corrected for reference, then normalized to percentage bound values to account for variations in immobilization levels, protein molecular weight, and compound molecular weight.
Compound binding studies were carried out according to experimental procedures above and SPR % occupancy was determined and summarized in Table 7.

p62 puncta = p62 puncta immunocytochemistry imaging in HeLa cells; assay type: cell-based; settings: 24 hours treatment, relative to vehicle control (DMSO)
Experimental: HeLa cells were seeded in coated 96-well plates (10,000 cells) and allowed to adhere overnight. After 24 hours of treatment with either vehicle (DMSO) or test compounds, the media was discarded, and cells were rinsed with ice-cold 1×PBS before fixation by 4% formaldehyde or paraformaldehyde for 20 min. Cells were then washed with 1×PBS and permeabilized with 0.1% Triton X-100 in PBS for 20 min and blocked with Blocking Buffer in PBS for 1 hour. The cells were incubated thereafter for 1 hour with anti-p62 primary antibody in Blocking Buffer, followed by incubation with secondary antibody for 1 hour. DAPI dye was used to visualize nuclei of fixed cells. The blocking buffer used were 5% Fetal Bovine Serum (FBS, ThermoFIsher Scientific, 10270106) and Li-cor Intercept (PBS) Blocking Buffer (Li-cor, 927-70001). The primary antibody used was mouse anti-p62 primary antibody (Novus Biologicals, H00008878-M01). The secondary antibodies used were goat anti-mouse Alexa Fluor Plus 488 secondary antibody (Invitrogen, GOXMS) and goat anti-mouse Alexa Fluor 488 secondary antibody (Invitrogen, A-11029). The DAPI dyes used were DAPI dye (Invitrogen, 62248) and DAPI dye (Invitrogen, D1306).
For the EVOS M7000 System, cells were imaged on the EVOS M7000 microscope using a 20× air objective (Nikon, N.A 0.45). DAPI and p62 channels were illuminated with LED light cubes using integrated hard-coated filter sets for DAPI (357/447 nm) and GFP (470/525 nm) respectively. Images were analysed for p62 puncta count on the Celeste 6.0 software.
For the Operetta CLS System, cells were imaged on the Operetta CLS using a 63× water objective on the DAPI and Alexa 488 channels. Images were analysed for p62 puncta count on the Harmony 5.1 software.
HeLa cells were treated with compounds for 24 hours to evaluate the effect of these compounds on p62 puncta activity. The resulting changes in levels of p62 puncta were assessed by imaging, either on the EVOS M7000 or Operetta CLS systems as described in experimental procedures. The fold change of p62 puncta levels induced by compound treatment relative to vehicle control (DMSO) was determined and summarized in Table 10.

LC3 protein = assay: LC3 lipidation (LC3-II/LC3-I) assay by Western blot in HeLa cells; assay type: cell-based; settings: 24 hours treatment, relative to vehicle control (DMSO)
Experimental: (§1) HeLa cells were seeded in 6-well plates (700,000 cells) and allowed to adhere overnight. Media was replaced one hour before administering either vehicle (DMSO) or test compounds. After 24 hours of treatment, the media was discarded, and cells were rinsed once with ice-cold 1×PBS before detached from plates with ice-cold RIPA Lysis and Extraction Buffer (Thermo Fisher Scientific) which was supplemented with protease and phosphatase inhibitors. The resulting cell suspensions were transferred to pre-chilled microcentrifuge tubes, incubated on ice for 20 min with intermittent mixing and then centrifuged at 12,000 rpm for 20 min at 4° C. The supernatants were then aspirated slowly and transferred into new tubes kept on ice. The protein concentration in the samples was determined using BCA kit (Thermo Fisher Scientific) as per manufacturer's instructions.
(§2) For the p62 oligomerization and LC3 lipidation assays, cell lysates were prepared using RIPA buffer supplemented with 2% SDS and benzonase (Sigma). The lysates were then combined with 4× Laemmli protein sample buffer (Bio-Rad), heated at 70° C. for 10 min and subjected to a brief centrifugation of 10-15 seconds.
(§3) For p62 oligomerization and LC3 lipidation assays, lysates containing 30 μg of protein and for BRD4 and FKBP12(F36V) degradation assays, lysates containing 20 μg of protein, were loaded slowly into the wells of 4-20% gradient Tris-glycine gels (Bio-Rad). The gels were run at 100V until completion and transferred onto PVDF membranes. Membranes were blocked using 5% milk in TBS-Tween (0.1%) buffer at room temperature for 1 hour. The membranes were incubated with primary antibody in 5% milk-TBST with shaking, overnight at 4° C. The primary antibodies used were: p62 (Novus Biologicals 2C11, H00008878-MO1), LC3A/B (Cell Signalling Technology D3U4C, 12741S), FKBP12 (Abcam ab24373), BRD4 (Cell Signalling Technology E2A7X, 13440S), GAPDH (Cell Signalling Technology D4C6R, 97166S), and β-Actin (Proteintech 66009-1-Ig). Following primary antibody incubation, membranes were washed thrice with TBST 10 min before and after incubation with secondary-HRP conjugated antibody in 5% milk-TBST for 1 hour at room temperature. The secondary antibodies used were: Anti-Mouse IgG HRP Conjugate (Promega W4021B) and Anti-Rabbit IgG HRP Conjugate (Promega W4011). For the p62 oligomerization assay, the total protein levels were assessed using Ponceau staining (Thermo Fisher Scientific) of PVDF membrane as per recommendation by manufacturer's guidelines.
(§4) Imaging was acquired using SuperSignal™ West Pico PLUS Chemiluminescent Substrate (Thermo Fisher Scientific) with iBright Invitrogen FL100 imaging system. Band signal intensity, reflective of protein concentrations, were quantified using Invitrogen™ iBright™ Analysis and Image J software.
HeLa cells were treated with compounds for 24 hours to evaluate the effect of these compounds on LC3-II/LC3-I levels, a measure of autophagy activation. The changes in levels of LC3-I, LC3-II and […] (loading control) were assessed by Western blotting, as described in experimental procedures. The fold increase of LC3-II/LC3-I levels induced by compound treatment relative to vehicle control (DMSO) was determined and summarized in Table 9. Specifically, FIGS. 3A-C show Western blot images and their corresponding quantification showing the lipidation levels of LC3 protein (LC3-II/LC3-I) by 24 hours compound treatments at listed concentrations, relative to vehicle control (DMSO) in HeLa cells.

p62 oligomers = target: T1, p62 oligomers (Homo sapiens, UniProt Q13501); assay: p62 oligomerization assay by Western blot in HeLa cells; assay type: cell-based; settings: 24 hours treatment, relative to vehicle control (DMSO)
T1 construct: endogenous in cells; host or cells: HeLa
Experimental: as §1, §2, §3, §4
HeLa cells were treated with compounds for 24 hours to evaluate the effect of these compounds on p62 oligomerisation activity. The resulting changes in levels of p62 oligomers were assessed by Western blotting, as described in experimental procedures. The fold change of p62 oligomer levels induced by compound treatment relative to vehicle control (DMSO) was determined and summarized in Table 8. Specifically, FIGS. 2A-C show Western blot images and their corresponding quantification showing the levels of high molecular weight (100-200 kDa) p62 oligomers by 24 hours compound treatments at listed concentrations, relative to vehicle control (DMSO) in HeLa cells. Protein loading consistencies was assessed by Ponceau staining (not shown).

Recombinant p62 protein, sequence (Q13501 whole entry, species assumed): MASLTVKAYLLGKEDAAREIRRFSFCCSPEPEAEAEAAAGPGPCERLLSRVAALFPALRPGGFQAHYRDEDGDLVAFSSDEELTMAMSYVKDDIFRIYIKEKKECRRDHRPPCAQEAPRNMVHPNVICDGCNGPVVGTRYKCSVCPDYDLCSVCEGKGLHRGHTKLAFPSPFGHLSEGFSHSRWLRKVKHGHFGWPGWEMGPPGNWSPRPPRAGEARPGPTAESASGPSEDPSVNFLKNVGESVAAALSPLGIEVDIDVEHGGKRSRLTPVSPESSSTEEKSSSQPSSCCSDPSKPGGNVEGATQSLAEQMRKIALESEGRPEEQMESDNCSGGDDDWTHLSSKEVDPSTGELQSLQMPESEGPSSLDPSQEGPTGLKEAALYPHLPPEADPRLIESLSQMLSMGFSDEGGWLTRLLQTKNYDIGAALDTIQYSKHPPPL
T1 sequence (Q13501 whole entry): as the sequence (Q13501 whole entry, species assumed) above

Structure (SMILES)	receptor occupancy at 100 µM (Recombinant p62 protein) [%]	other results
CC(O)CNCc1cccc2c1ccn2Cc1ccccc1 (stereo not shown) [Compound 3]	30 to 70	p62 puncta (fold change of p62 puncta levels) (p62 puncta): + (<2-fold change in p62 puncta levels relative to DMSO control)
CNCCOCc1cccc2c1ccn2Cc1ccccc1 [Compound 5, 2-((1-benzyl-1H-indol-4-yl)methoxy)-N-methylethan-1-amine]	30 to 70	p62 puncta (fold change of p62 puncta levels) (p62 puncta): + (<2-fold change in p62 puncta levels relative to DMSO control)
CC(C)NCC(O)COc1cccc2c1ccn2Cc1ccccc1 (stereo not shown) [Compound 6, 1-((1-benzyl-1H-indol-4-yl)oxy)-3-(isopropylamino)propan-2-ol]	30 to 70	LC3 lipidation (fold increase of LC3-II/LC3-I levels) (LC3 protein): + (<2-fold change in LC3-II/LC3-I relative to DMSO control); p62 oligomerization (fold change of p62 oligomer levels) (p62 oligomers): ++ (>2-fold change relative to DMSO control)
OC1CC(NCc2cccc3c2ccn3Cc2ccccc2)C1 (stereo not shown) [Compound 7]	< 30	p62 puncta (fold change of p62 puncta levels) (p62 puncta): + (<2-fold change in p62 puncta levels relative to DMSO control)
OCCNCc1cccc2c1ccn2-c1ccccc1 [Compound 9, 2-(((1-phenyl-1H-indol-4-yl)methyl)amino)ethan-1-ol]	> 70	LC3 lipidation (fold increase of LC3-II/LC3-I levels) (LC3 protein): + (<2-fold change in LC3-II/LC3-I relative to DMSO control); p62 oligomerization (fold change of p62 oligomer levels) (p62 oligomers): ++ (>2-fold change relative to DMSO control)
OCCNCc1cccc2c1ccn2Cc1ncc[nH]1 [Compound 22]	< 30	
OCCNCc1cccc2c1ccn2CC1CCOCC1 [Compound 24]	30 to 70	
OCCNCc1cccc2c1ccn2CC1CCNCC1 [Compound 25, 2-(((1-(piperidin-4-ylmethyl)-1H-indol-4-yl)methyl)amino)ethan-1-ol]	< 30	
OCCNCc1cccc2c1ccn2CCc1cccnc1 [Compound 29]	< 30	
OCCNCc1c(Cl)ccc2c1ccn2Cc1ccccc1 [Compound 36]	30 to 70	
OCCNCc1ccc2c(ccn2Cc2ccccc2)c1 [Compound 38]	30 to 70	
OCCNCc1cccc2c1CCN2Cc1ccccc1 [Compound 40, 2-(((1-benzylindolin-4-yl)methyl)amino)ethan-1-ol]	< 30	
OCCNCc1cccc2c1CN(Cc1ccccc1)C2 [Compound 42, 2-(((2-benzylisoindolin-4-yl)methyl)amino)ethan-1-ol]	< 30	
CC(C)NCCN1Cc2cccc(CNCCO)c2C1 [Compound 43]	< 30	
O=C(CO)NCc1cccc2c1ccn2Cc1ccc(F)cc1 [Compound 46]	30 to 70	
CC(C)OCCNCc1cccc2c1ccn2Cc1ccccc1 [Compound 47]	< 30	
OCCNCc1ccnc2c1ccn2Cc1ccccc1 [Compound 50]	< 30	
OCCNCc1cncc2c1ccn2Cc1ccccc1 [Compound 51]	< 30	
O=C(CCO)NCc1cccc2c1ccn2Cc1ccccc1 [Compound 52]	< 30	
O=C(NCCO)NCc1cccc2c1ccn2Cc1ccccc1 [Compound 53, 1-((1-benzyl-1H-indol-4-yl)methyl)-3-(2-hydroxyethyl)urea]	< 30	
OCCNCc1cccc2c1ccn2CC1CCCCN1 (stereo not shown) [Compound 54]	< 30	p62 puncta (fold change of p62 puncta levels) (p62 puncta): ++ (>2-fold change in p62 puncta levels relative to DMSO control)
CC(C)(C)OC(=O)NCCOCCOCCOCCNCc1cccc2c1ccn2Cc1ccc(F)cc1 [Compound 84, tert-butyl (1-(1-(4-fluorobenzyl)-1H-indol-4-yl)-5,8,11-trioxa-2-azatridecan-13-yl)carbamate]	< 30	
CC(=O)N1CCC(COCCNCc2cccc3c2ccn3Cc2ccccc2)CC1 [Compound 85, 1-(4-((2-(((1-benzyl-1H-indol-4-yl)methyl)amino)ethoxy)methyl)piperidin-1-yl)ethan-1-one]	< 30	
